# According to the Deep4Chem optical property database:
# Assay: solvent given as SMILES
# Conditions: in CO
row,SMILES,emission maximum [nm]
1,O=C1c2ccccc2C(=O)N1c1ccc(Cn2cncn2)cc1,440
2,CCCCCCCCCCN1C(=O)c2cc(NCCCOCCO)c3c4c(cc(NCCCOCCO)c(c24)C1=O)C(=O)N(CCCCCCCCCC)C3=O,642

# Same assay, conditions: in COc1ccccc1
row,SMILES,emission maximum [nm]
1,CCCCCCOc1ccc(C#Cc2ccc(C#CC#Cc3ccc(C#Cc4ccc(OCCCCCC)c(OCCCCCC)c4)c4nsnc34)c3nsnc23)cc1OCCCCCC,555

# Same assay, conditions: in CS(C)=O
row,SMILES,emission maximum [nm]
1,[C-]#[N+]c1ccc(-c2ccc(NC)cc2)cc1,436
2,c1ccc2c(c1)CCc1c-2cnc2c1-c1ccccc1CC2,360
3,CN(C)c1ccc(/C=C2\CC/C(=C\c3ccc(N(C)C)cc3)C2=O)cc1,588
4,O=C1c2ccccc2C(=O)N1c1ccc(Cn2cncn2)cc1,563
5,O=C1CC(=O)Nc2cc(C(=O)O)ccc2N1,407

# Continued, values first:
row,emission maximum [nm],SMILES
1,389,COc1ccc(-c2nc(-c3ccccc3O)c(-c3ccccc3O)n2-c2ccc(C)cc2)cc1
2,438,COc1cc2sc3nc(-c4ccccc4OC)sc3c2cc1OC
3,428,Cc1cc2ccccc2c2c1c1ccccc1n2-c1ccc(N(c2ccccc2)c2ccccc2)cc1
4,438,N#CC1=C(N)n2c(=O)c3ccccc3c(=O)n2C1c1ccccc1 (stereo not given)

# Same assay, conditions: in Cc1ccccc1
row,SMILES,emission maximum [nm]
1,CCn1c2ccccc2c2cc(-c3cc(-c4ccc5c(c4)c4ccccc4n5CC)nc(-c4ccc(C#N)cc4)n3)ccc21,388
2,c1ccc(-c2nc(-c3ccccc3)nc(-c3ccc(-n4c5ccccc5c5cc(-n6c7ccccc7c7ccccc76)ccc54)cc3)n2)cc1,458
3,COc1ccc(-c2ccc3c(c2)c2cc(-c4ccc(OC)cc4)ccc2n3-c2ccc(C(=O)c3ccc4sc5ccccc5c4c3)cc2)cc1,460.87
4,[C-]#[N+]c1ccc(-c2ccc(NC)cc2)cc1,388
5,c1ccc2c(c1)CCc1c-2cnc2c1-c1ccccc1CC2,362
6,CN(C)c1ccc(/C=C2\CC/C(=C\c3ccc(N(C)C)cc3)C2=O)cc1,482
7,CC(C)(C)c1ccc2c(c1)c1cc(C(C)(C)C)ccc1n2-c1ccccc1-c1nc(-c2ccccc2P(=O)(c2ccccc2)c2ccccc2)nc(-c2ccccc2P(=O)(c2ccccc2)c2ccccc2)n1,498.41
8,C[Si](C)(C)C#Cc1cc2ccc3cc(C#C[Si](C)(C)C)cc4ccc(c1)c2c34,407
9,O=C1c2ccccc2C(=O)N1c1ccc(Cn2cncn2)cc1,323
10,COc1cc(/C=C/c2ccccn2)c(OC)cc1C=O,444
11,CCCCCCOc1ccc(C#Cc2ccc(C#CC#Cc3ccc(C#Cc4ccc(OCCCCCC)c(OCCCCCC)c4)c4nsnc34)c3nsnc23)cc1OCCCCCC,528
12,Cc1cc(C)c(B(c2c(C)cc(C)cc2C)N2c3ccccc3C(C)(C)c3ccccc32)c(C)c1,558
13,CC(C)c1cccc(C(C)C)c1N1C(=O)c2cc(Cl)c3c4c(Cl)cc5c6c(cc(Cl)c(c7c(Cl)cc(c2c37)C1=O)c64)C(=O)N(c1c(C(C)C)cccc1C(C)C)C5=O,552

# Same assay, conditions: in ClC(Cl)(Cl)Cl
row,SMILES,emission maximum [nm]
1,CN(C)c1ccc(/C=C2\CC/C(=C\c3ccc(N(C)C)cc3)C2=O)cc1,478

# Same assay, conditions: in ClC(Cl)Cl
row,SMILES,emission maximum [nm]
1,[C-]#[N+]c1ccc(-c2ccc(NC)cc2)cc1,400
2,CN(C)c1ccc(/C=C2\CC/C(=C\c3ccc(N(C)C)cc3)C2=O)cc1,543
3,CC(C)(C)c1ccc2c(c1)c1cc(C(C)(C)C)ccc1n2-c1ccccc1-c1nc(-c2ccccc2P(=O)(c2ccccc2)c2ccccc2)nc(-c2ccccc2P(=O)(c2ccccc2)c2ccccc2)n1,511.13
4,CCc1c(CC)c2n(c1C)[B-](F)(F)[N+]1=C(C)c3cc4c(cc3C1=C2)=[N+]1C(=Cc2c(CC)c(CC)c(C)n2[B-]1(F)F)C=4C,774
5,CCCCCCCCCCN1C(=O)c2cc(NCCCOCCO)c3c4c(cc(NCCCOCCO)c(c24)C1=O)C(=O)N(CCCCCCCCCC)C3=O,640
6,CCCCCCOc1ccc(C#Cc2ccc(C#CC#Cc3ccc(C#Cc4ccc(OCCCCCC)c(OCCCCCC)c4)c4nsnc34)c3nsnc23)cc1OCCCCCC,563

# Next, values leading:
row,emission maximum [nm],SMILES
1,632,CCCCN1c2ccccc2Sc2cc(/C=C\c3cc(=O)oc4cc(C)ccc34)ccc21
2,362,O=C1OC(=O)[C@H]2[C@@H]1[C@@H]1C[C@H]2c2c1c(-c1ccccc1)c1ccccc1c2-c1ccccc1
3,410,COc1ccc(-c2nc(-c3ccccc3O)c(-c3ccccc3O)n2-c2ccc(C)cc2)cc1
4,582,Cc1ccccc1CN(Cc1ccccc1C)c1nc(C#N)c(N(Cc2ccccc2C)Cc2ccccc2C)nc1C#N
5,733,COc1ccc2cc(C3=[N+]4C(=Nc5c(-c6ccccc6)cc(-c6ccc7cc(OC)ccc7c6)n5[B-]4(F)F)C(c4ccccc4)=C3)ccc2c1
6,417,CC(C)(C)c1ccc2c(c1)oc1nc3oc4ccc(-n5c6ccccc6c6ccccc65)cc4c3cc12

# Same assay, conditions: in ClCCCl
row,SMILES,emission maximum [nm]
1,CCCCCCOc1ccc(C#Cc2ccc(C#CC#Cc3ccc(C#Cc4ccc(OCCCCCC)c(OCCCCCC)c4)c4nsnc34)c3nsnc23)cc1OCCCCCC,591

# Same assay, conditions: in ClCCl
row,SMILES,emission maximum [nm]
1,CCn1c2ccccc2c2cc(-c3cc(-c4ccc5c(c4)c4ccccc4n5CC)nc(-c4ccc(C#N)cc4)n3)ccc21,417
2,Cc1nc(-c2cc(C(F)(F)F)ccc2O)n2c1CCCC2,432
3,CCCCC(CC)COc1ccc2nc(-c3ccc(-c4c(C)noc4C)s3)sc2c1 (stereo not given),415
4,[C-]#[N+]c1ccc(-c2ccc(NC)cc2)cc1,405
5,c1ccc2c(c1)CCc1c-2cnc2c1-c1ccccc1CC2,363
6,CN(C)c1ccc(/C=C2\CC/C(=C\c3ccc(N(C)C)cc3)C2=O)cc1,547
7,CN(C)c1ccc(/C=C/c2nc(N3CCOCC3)c3c([n+]2[O-])CCCC3)cc1,523
8,c1ccc(-n2c3ccccc3c3cc([Si](c4ccccc4)(c4ccccc4)c4ccc5c(c4)c4ccccc4n5-c4ccccc4)ccc32)cc1,350
9,CC(C)(C)c1ccc2c(c1)c1cc(C(C)(C)C)ccc1n2-c1ccccc1-c1nc(-c2ccccc2P(=O)(c2ccccc2)c2ccccc2)nc(-c2ccccc2P(=O)(c2ccccc2)c2ccccc2)n1,526.23
10,CC(C)[Si](C#Cc1c2nsnc2c(C#C[Si](C(C)C)(C(C)C)C(C)C)c2nc3c4ccccc4c(=O)c4ccccc4c3nc12)(C(C)C)C(C)C,594
11,O=C1c2ccccc2C(=O)N1c1ccc(Cn2cncn2)cc1,367
12,COc1cc(/C=C/c2ccccn2)c(OC)cc1C=O,455
13,CCCCCCOc1ccc(C#Cc2ccc(C#CC#Cc3ccc(C#Cc4ccc(OCCCCCC)c(OCCCCCC)c4)c4nsnc34)c3nsnc23)cc1OCCCCCC,582
14,Cc1cc(C)c(B(c2c(C)cc(C)cc2C)N2c3ccccc3C(C)(C)c3ccccc32)c(C)c1,580

# Continued, values first:
row,emission maximum [nm],SMILES
1,347,COc1ccc(-c2nc(-c3ccccc3O)c(-c3ccccc3O)n2-c2ccc(C)cc2)cc1
2,487,COC(=O)C1=C(C(=O)OC)C2(c3cc(Cl)ccc3-c3c(Cl)cc(Cl)cc32)C2(/C=C/c3ccccc3)c3cc(OC)c(OC)cc3CCN12 (stereo not given)
3,733,COc1ccc2cc(C3=[N+]4C(=Nc5c(-c6ccccc6)cc(-c6ccc7cc(OC)ccc7c6)n5[B-]4(F)F)C(c4ccccc4)=C3)ccc2c1
4,616,O=C1c2ccccc2-c2nc3c4ccccc4c4ccccc4c3n21
5,453,N#CC(C#N)=Cc1ccc2c(c1)c1cc(C=C(C#N)C#N)ccc1n2-c1cccc2ccccc12
6,404,Cc1cc2ccccc2c2c1c1ccccc1n2-c1ccc(N(c2ccccc2)c2ccccc2)cc1
7,568,CCCCn1c2ccc(/C=C(\C#N)c3ccc([N+](=O)[O-])cc3)cc2c2cc(Cn3c(-c4ccc5c(c4)c4ccccc4n5CCCC)nc4ccccc43)ccc21
8,660,CC(C)[Si](C#Cc1c2cc3ccccc3cc2c(C#Cc2ccc(F)cc2)c2cc3ccccc3cc12)(C(C)C)C(C)C

# Same assay, conditions: in O
row,emission maximum [nm],SMILES
1,541,CCNc1ccc2c(c1)C(C)(C)C(=O)C=C2
2,570,CCCCn1c2ccc(/C=C(\C#N)c3ccc([N+](=O)[O-])cc3)cc2c2cc(Cn3c(-c4ccc5c(c4)c4ccccc4n5CCCC)nc4ccccc43)ccc21
3,408,Clc1ccc2cc3cccc[n+]3cc2c1

row,SMILES,emission maximum [nm]
1,[C-]#[N+]c1ccc(-c2ccc(NC)cc2)cc1,458
2,CC[N+]1(CC)CN2C(=N1)C(C(=O)O)=Cc1ccc(C)cc12,457

# Same assay, conditions: in O=P(c1ccccc1)(c1ccccc1)c1ccccc1Oc1ccccc1P(=O)(c1ccccc1)c1ccccc1
row,SMILES,emission maximum [nm]
1,c1ccc(-c2nc(-c3ccccc3)nc(-c3ccc(-n4c5ccccc5c5cc(-n6c7ccccc7c7ccccc76)ccc54)cc3)n2)cc1,475
2,CC(C)(C)c1ccc2c(c1)c1cc(C(C)(C)C)ccc1n2-c1ccccc1-c1nc(-c2ccccc2P(=O)(c2ccccc2)c2ccccc2)nc(-c2ccccc2P(=O)(c2ccccc2)c2ccccc2)n1,504

# Same assay, conditions: in OCC(F)(F)F
row,SMILES,emission maximum [nm]
1,CC(C)(C)NC1=C2C=CC=[N+]2[B-](F)(F)n2cccc21,497.5

# Same assay, conditions: in OCCOCCO
row,SMILES,emission maximum [nm]
1,CC1CC=C(c2ccc(-c3cccs3)s2)CC1 (stereo not given),414

# Same assay, conditions: in S=C=S
row,SMILES,emission maximum [nm]
1,CN(C)c1ccc(/C=C2\CC/C(=C\c3ccc(N(C)C)cc3)C2=O)cc1,497

# Same assay, conditions: in c1cc(-n2c3ccccc3c3ccccc32)cc(-n2c3ccccc3c3ccccc32)c1
row,SMILES,emission maximum [nm]
1,COc1ccc(-c2ccc3c(c2)c2cc(-c4ccc(OC)cc4)ccc2n3-c2ccc(C(=O)c3ccc4sc5ccccc5c4c3)cc2)cc1,462

# Same assay, conditions: in c1ccccc1
row,emission maximum [nm],SMILES
1,505,CCCCn1c2ccc(/C=C(\C#N)c3ccc([N+](=O)[O-])cc3)cc2c2cc(Cn3c(-c4ccc5c(c4)c4ccccc4n5CCCC)nc4ccccc43)ccc21

# Same assay, conditions: in c1ccncc1
row,SMILES,emission maximum [nm]
1,CC1CC=C(c2ccc(-c3cccs3)s2)CC1 (stereo not given),417
2,[C-]#[N+]c1ccc(-c2ccc(NC)cc2)cc1,421
